What was measured:
[1] = system: patients with chronic (primary) insomnia characterized by sleep maintenance difficulties; assay: Phase 3 study EFC6220: polysomnography (PSG) recordings, 6 weeks, placebo-controlled; type: in vivo
Excerpt: (§1) The Phase 3 program of development of eplivanserin in the treatment of patients with chronic (primary) insomnia characterized by sleep maintenance difficulties consisted of 3 randomized, double-blind (DB), placebo-controlled, efficacy and safety studies designed to assess the efficacy of eplivanserin on sleep maintenance either using polysomnography (PSG) recordings (6-week study EFC6220) or patient-reported outcome (12-week studies LTE6217 and LTE6262) collected daily on sleep questionnaires. They were all double-blind (DB), randomized, placebo-controlled studies. In all studies, treatment period was preceded by a one week, placebo run-in period, designed to check selection criteria for insomnia based on patient reported sleep parameters collected on the daily sleep questionnaires (Studies LTE6217, and LTE6262) or based on PSG recordings during two screening nights in a sleep laboratory (Study EFC6220). Treatment period was followed by a placebo run-out period of 2 weeks designed to assess the effect of abrupt treatment discontinuation. Study EFC6220 was designed to measure the pharmacodynamic activity of eplivanserin on sleep maintenance using PSG recordings in a sleep laboratory. Polysomnograms were recorded in standard conditions during 8 hours in bed. Studies LTE6217 and LTE6262 measured the efficacy of eplivanserin in real life conditions of use at home by collecting daily sleep parameters reported by patients through an Interactive Voice Response System (IVRS).

[2] = system: patients with chronic (primary) insomnia characterized by sleep maintenance difficulties; assay: Phase 3 studies LTE6217 and LTE6262: patient-reported sleep parameters, 12 weeks, placebo-controlled; type: in vivo
Excerpt: as §1

[3] = cited from earlier work
[4] = system: patients with mild to moderate COPD; assay: COPD phase I study: safety and tolerability; type: in vivo; conditions: for safety / tolerability: 15 mg single dose, mild or moderate COPD
Method: (§2) The primary objective of this phase I study was to evaluate the pharmacodynamic (PD) effects of eplivanserin 15 mg single dose versus placebo (P) on respiratory function measured by mean overnight oxygen saturation (SaO2) in patients with mild to moderate COPD. Recorded PD parameters were: • Pulse oximetry continuously recorded overnight, with 02 saturation in %, • Pulmonary function tests (PFTs): spirometry [measuring forced vital capacity (FVC), forced expiratory volume (FEV), peak […] flow rate (PEFR), forced […] flow (FEF)] and plethysmography [evaluating airways resistance and conductance], • Capillary blood gases, • PSG with apnea /hypopnea episodes, sleep global sleep parameters and sleep architecture, • Leeds Sleep Evaluation Questionnaire (LSEQ) and Bond & Lader VAS. Safety and pharmacokinetic parameters were also assessed.
(§3) The study was a single-centre, double-blind, randomized, 2-way crossover, placebo-controlled crossover study with 14 day washout: 15 mg single-dose of eplivanserin (E) vs. placebo (P). Included patients were displaying mild to moderate chronic obstructive pulmonary disease (COPD). The primary end-point was the pulmonary function (02 saturation over the entire night). 28 evaluable patients have been evaluated (COPD severity (FEV1) 50% mild / 50% moderate; Gender: 46.4% M, 53.6% F)

[5] = system: patients with mild to moderate COPD; assay: COPD phase I study: PSG (apnea/hypopnea episodes, sleep parameters); type: in vivo; conditions: 15 mg single dose
Method: as §2, §3

[6] = system: patients with mild to moderate COPD; assay: COPD phase I study: overnight pulse oximetry (oxygen saturation); type: in vivo
Method: as §2, §3

[7] = system: patients with mild to moderate COPD; assay: COPD phase I study: Leeds Sleep Evaluation Questionnaire and Bond & Lader VAS; type: in vivo; conditions: 15 mg single dose
Method: as §2, §3

[8] = system: patients with mild to moderate COPD; assay: COPD phase I study: spirometry; type: in vivo; conditions: Eplivanserin 15 mg single dose minus Placebo
Method: as §2, §3

[9] = system: patients with mild to moderate COPD; assay: COPD phase I study: plethysmography; type: in vivo
Method: as §2, §3

[10] = system: patients with mild to moderate COPD; assay: COPD phase I study: capillary blood gases; type: in vivo; conditions: 15 mg single dose
Method: as §2, §3

[11] = 5 mg/day, after 6 and 12 weeks of treatment

## CN(C)CCO/N=C(/C=C/c1ccc(O)cc1)c1ccccc1F [Eplivanserin, (1Z, 2E)-1-(2-fluorophenyl)-3-(4-hydroxyphenyl)-prop-2-en-1-one-O-(2-dimethylaminoethyl)oxime]
[1]; 5 mg/day compared with placebo
  Stage 1: decrease of Stage 1
  percentage of time spent in sleep Stages 3&4 (SWS or deep sleep): increased
[1]; Week 3 and Week 6, difference with placebo not statistically significant at Week 6
  PSG-WASO: decreasing PSG-WASO at Week 3 and Week 6
[1]; compared to placebo
  number of brief awakenings (<1 min): decreased
[1]; eplivanserin 5 mg
  sleep onset (PSG-LPS and pr-SOL): did not affect sleep onset
[1]; eplivanserin 5 mg, Week 3, p<0.0001
  PSG-NAW (LS mean): -1.74
[1]; eplivanserin 5 mg, Week 3 and Week 6
  pr-NAW: decrease of pr-NAW
[1]; eplivanserin 5 mg, Week 6, p<0.0001
  PSG-NAW (LS mean): -1.82
[1]; in vivo
  QoS: improved
  REM sleep: not affected
  SWS/WASO + Stage 1 index: increase
[2]; 5 mg/day
  effect on sleep maintenance (pr-WASO), onset and persistence: observed from Day 1 and persisted up to 1 year of treatment
[2]; [11]
  mean pr-NAW: reducing
  pr-TST: increasing
  pr-WASO: consistently and significantly decreasing
[2]; after 6 and 12 weeks of treatment
  Quality of Sleep and Refreshing Quality of Sleep: improved
[2]; compared with placebo, reported by insomniac patients
  "sleepiness in the morning" and "ability to concentrate": significantly favorable effect
[2]; human, in vivo
  sleep onset: did not affect sleep onset
[2]; safety analyses
  potential for residual effects (next-day impairment): devoid of next-day impairment
[3]; average value
  half-life time: 50 h
[3]; human, in vivo
  absorbed: > 70%
[4]
  safety / tolerability: well tolerated
[4]; listed as eplivanserin
  safety / tolerability: no safety concern
[4]; oral single dose 15 mg, in comparison with placebo
  impairment of respiratory function (SaO2%, spirometry, body plethysmography): no impairment of respiratory function was observed
[5]
  AHI (apnea hypopnea index): reduction
  LPS (latency to persistent sleep): no change
  TST (total sleep time): increase
  WASO (waketime duration after sleep onset): reduction
  number of awakenings after sleep onset: reduction
[6]; Eplivanserin 15 mg single dose minus Placebo, P-value 0.2499
  SaO2 (%) during Time in bed, treatment difference LS mean: -0.30%
[6]; eplivanserin 15 mg single dose, finger pulse oximetry
  Mean oxygen saturation over the entire night (mean ± SD): 93.4 % ± 1.66
[6]; single dose 15 mg vs placebo
  SaO2 (%) during the sleep stages (stage 1, 2, SWS, REM, wake): no effect
[7]
  LSEQ and Bond & Lader VAS post-treatment scores vs baseline: minimally or unaffected
[8]; P-value 0.1411
  Forced vital capacity, treatment difference LS mean: -0.12 L
[8]; P-value 0.5289
  Forced expiratory volume, treatment difference LS mean: -0.03 L
[8]; P-value 0.6683
  Peak expiratory flow, treatment difference LS mean: -0.05 L/S
[9]; 15 mg single dose vs placebo
  airways resistance and conductance in each patient's subgroup (mild, moderate): no difference
[9]; Eplivanserin 15 mg single dose minus Placebo, P-value 0.4880
  Airways resistance, treatment difference LS mean: 0.02 KPa * s/l
[9]; Eplivanserin 15 mg single dose minus Placebo, P-value 0.6642
  Airways conductance, treatment difference LS mean: -0.01 1/KPa * s
[10]
  Capillary blood gases (pH, oxygen partial pressure): minimally or unaffected

Reference: EP2269600A1, “Treatment of sleep disorders using eplivanserin in COPD patients” (Sanofi-Aventis, priority 2009, dated 2011)
